In one experiment the test system is H1975. Nature of the experiment: Blocking of sanguinarine-induced apoptosis and EGFR degradation in H1975. Type of experiment: cell-based. Conditions: H1975, 24 hrs, flow cytometry. An excerpt:
The fold change of treated group is normalized to untreated group. Results are expressed as mean±S.E.M. The data represent mean±S.E.M. of three independent experiments. (n=3, ***p<0.001). In FIG. 6B, the up-regulation of NOX 3 by sanguinarine is also confirmed on protein level, which is corresponding to the degradation of EGFR. […] One of representative data is shown (n=3). FIG. 6D uses real-time PCR to detect the RNA expression level of Msr A in five NSCLC cell lines. The expression level of Msr in other 5 cell lines is normalized to that of BEAS-2B cell line. The data represent mean±S.E.M. of three independent experiments (n=3, *p<0.05, **p<0.01, ***p<0.001). The result in this example supports that NADPH oxidase and methionine sulfoxide reductase are key enzymes involved in the ROS generation induced by […] in gefitinib-resistant NSCLC. Schematic diagram of how methionine (Met) is oxidized by NADPH oxidase (ROS) and reduced by methionine sulfoxide reductase is shown in FIG. 5. FIG. 7 is a cell model further illustrating how sanguinarine and H2O2 act on the signaling pathway of inducing EGFR degradation in H1975 cells, and thereby leading to apoptosis of the cells. […]

Experiment [1] deals with H2228 (EML4-ALK). To be noted: cited from earlier work.
For experiment [2], the system named is total EGFR, EGFR (pY845) and EGFR (pY1068) in A594 cells. Nature of the experiment: Western blot of EGFR markers in A594 cells. The format is cell-based. To be noted: H2O2. An excerpt: (§1) FIG. 2A is a control. Among the four cell lines, only H1975 cells have additional T790M mutation on EGFR. […] Compared with sanguinarine, effect of H2O2 on suppression of these markers in H1975 cells is relatively less significant. […] The EGFR degradation is also specific in NSCLC cells having T790M mutation by using sanguinarine or H2O2.
(A western blot detects proteins with antibodies after separation by electrophoresis.)

Experiment [3] deals with short EGFR peptide containing the T790M mutation (LIMQL). Nature of the experiment: ESI-MS of methionine oxidation in short EGFR peptide. The format is biochemical. Conditions: 10-100 μM H2O2 for 10 min. An excerpt:
The methionine amino acid of a short EGFR peptide containing the T790M mutation could be easily oxidized in a dose-dependent manner under oxidative stress condition. […] A peptide equivalent to the amino acid sequence position from 788 to 792 of EGFR in wild-type (LITQL) and T790M mutant (LIMQL) of EGFR (Sequence acquired from Pubmed database; SEQ. ID. NO. 2/GenBank Accession number of amino acid is NP_005219) is synthesized and both of them are subject to mass spectrometry. In FIG. 4A, ESI-MS detects the standard peptide of LIMQL and oxidized form of the peptide (LIM(O)QL). They are used as standard of the MS pattern of the un-oxidized form of methionine (“M”) and the oxidized form methionine (“M(O)”) for the EGFR short peptide. FIG. 4B-G are ESI-MS results of oxidized methionine in peptide treated with different concentrations of H2O2: FIG. 4B is for H2O2 untreated sample; FIG. 4C is for sample treated with 10 μM H2O2 for 10 min; FIG. 4D is for sample treated with 20 μM H2O2 for 10 min; FIG. 4E is for sample treated with 40 μM H2O2 for 10 min; FIG. 4F is for sample treated with 80 μM H2O2 for 10 min; FIG. 4G is for sample treated with 100 μM H2O2 for 10 min. One of representative data is shown (n=3).

Experiment [4] deals with EGFR construct having double mutation (L858R and T790M) in HEK293 cells. Nature of the experiment: Western blot of total EGFR in HEK293 cells transfected with EGFR L858R+T790M double mutation. Type of experiment: cell-based. On the procedure:
HEK293 cells are used in this example as cell model to be transfected with different constructs of EGFR (wild-type, L858R mutation, Exon 19 deletion, L858R+T790M double mutation). In FIG. 3A, 3 μM saguinarine is added into the HEK293 transfected with different EGFR constructs.

The test system of experiment [5] is total EGFR, EGFR (pY845) and EGFR (pY1068) in H1975 cells. Briefly: Western blot of EGFR markers in H1975 cells. Type of experiment: cell-based. Conditions: 25 μM H2O2.
Description: as §1

The test system of a further experiment is HCC827(EGFR^L858R). Nature of the experiment: IC50 of sanguinarine against NSCLC cell line HCC827. The format is cell-based. Conditions: Homo sapiens. An excerpt: (§2) Among the five cell lines, H1975 is the most sensitive cells to sanguinarine treatment, while A549 is the most resistant one.
For experiment [6], the system named is H1650 (EGFR^Exon19 deletion). Nature of the experiment: IC50 of sanguinarine against NSCLC cell line H1650. The format is cell-based. Conditions: Homo sapiens, NCI-H1650.
Description: as §2

Experiment [7] relates to H2228 (EML4-ALK). Nature of the experiment: IC50 of sanguinarine against NSCLC cell line H2228. The format is cell-based. Conditions: Homo sapiens, NCI-H2228.
Description: as §2

For a further experiment, the system named is A549 (EGFR^wild-type). Briefly: IC50 of sanguinarine against NSCLC cell line A549. Type of experiment: cell-based. Conditions: Homo sapiens.
Description: as §2

The test system of a further experiment is H1975(EGFR^L858R+T790M). Briefly: IC50 of sanguinarine against NSCLC cell line H1975. The format is cell-based. To be noted: for IC50: Homo sapiens, NCI-H1975.
Description: as §2

This is an account of results in patent US9439898B2, “Methods for novel drug discovery, treatment and selective targeting for gefitinib-resistant non-small-cell lung cancer harboring T790M mutation” (Macau University of Science and Technology, priority 2014, dated 2016).

For orientation: IC50 means the concentration needed to halve the response being measured.

SMILES strings stand for the structures. Where two headings read alike, the source gives them in different places.

In the case of `c1ccc2c(c1)[I+]c1ccccc1-2` [DPI], the “blocking of apoptosis and degradation of EGFR induced by sanguinarine” value in the experiment on H1975 is “blocks the apoptosis and the degradation of EGFR”.

With `COc1cc2ncnc(Nc3ccc(F)c(Cl)c3)c2cc1OCCCN1CCOCC1` [Gefitinib], in the experiment with H2228 (EML4-ALK) [1], the Gefitinib resistance entry was “resistance”.

Take `OO` [H2O2]: the “level of all markers (total EGFR, pY845 EGFR, pY1068 EGFR)” value in experiment [2] was “no significant change”. The “oxidation of methionine in short EGFR peptide” value in [3] was “oxidized by ROS in a time- and dose-dependent manner”. The “total EGFR level” value in experiment [4] (200 μM H2O2) is recorded as “significant reduction”; in [4] (300 μM H2O2), “more significant reduction”. For the same molecule, the “expression level of total EGFR and pY845 EGFR” value in experiment [5] is reported as “slightly reduced”.

Consider `C[n+]1cc2c3c(ccc2c2ccc4cc5c(cc4c21)OCO5)OCO3` [sanguinarine], for which the IC50 worked out at 1900 ± 248 nM in the experiment with HCC827(EGFR^L858R) (HCC827, 24 hrs, read-out: IC50 value Treatment (24 hrs)); 1060 ± 270 nM in the experiment on HCC827(EGFR^L858R) (HCC827, 48 hrs, read-out: IC50 value Treatment (48 hrs)); 3470 ± 1310 nM in experiment [6] (H1650, 24 hrs, read-out: IC50 value Treatment (24 hrs)); 2640 ± 1310 nM in experiment [6] (H1650, 48 hrs, read-out: IC50 value Treatment (48 hrs)); 3730 ± 1230 nM with H2228 (EML4-ALK) [7] (H2228, 24 hrs, read-out: IC50 value Treatment (24 hrs)); 3080 ± 1560 nM in the experiment with H2228 (EML4-ALK) [7] (H2228, 48 hrs, read-out: IC50 value Treatment (48 hrs)). Further, the IC50 in the experiment with A549 (EGFR^wild-type) (A549, 24 hrs, read-out: IC50 value Treatment (24 hrs)) turned out to be 5710 ± 1730 nM; in the experiment with A549 (EGFR^wild-type) (A549, 48 hrs, read-out: IC50 value Treatment (48 hrs)), 3830 ± 1110 nM; in the experiment on H1975(EGFR^L858R+T790M) (H1975, 24 hrs, read-out: IC50 value Treatment (24 hrs)), 680 ± 240 nM; in the experiment with H1975(EGFR^L858R+T790M) (H1975, 48 hrs, read-out: IC50 value Treatment (48 hrs)), 580 ± 140 nM. Besides, in the experiment with H1975(EGFR^L858R+T790M) (H1975 vs A549), the “IC50 value in H1975 fold lower than that of A549” value was 8 fold. The “IC50 value in H1975 fold lower than that of H1650” value in the experiment on H1975(EGFR^L858R+T790M) (H1975 vs H1650) was 5.1 fold. Also, the “IC50 value in H1975 fold lower than that of H2228” value with H1975(EGFR^L858R+T790M) (H1975 vs H2228) amounted to 5.4 fold. Besides, the “IC50 value in H1975 fold lower than that of HCC827” value with H1975(EGFR^L858R+T790M) (H1975 vs HCC827) is 3 fold.
